Experiment [1] has as its system Herpes Simplex Virus Type 1, Strain 377. Kind of experiment: antiviral activity vs herpes simplex virus type 1 (virus-induced cytopathogenic effects in host cells). The class given is cell-based. The conditions noted are these: for antiviral activity against HSV-1 (in words): comparisons are with Ara-A (positive control); for EC50: Human alphaherpesvirus 1, Vero, read-out: MIC50 (concentration for 50% inhibition of virus-induced cytopathogenic effects); for VR (Virus Rating): VR ≥1 indicates definite antiviral activity, 0.5-0.9 marginal to moderate. The protocol: (§1) Certain representatives of Formulas V-VIII have potent antiviral activity and may be useful for the treatment of virus-induced diseases. The antiviral activity of compounds represented by Formulas V-VIII was measured as a virus rating (VR), and the potency (MIC50) was determined as the concentration of the tested compound required to inhibit virus-induced cytopathogenic effects in host cells by 50%. Carbocyclic analogs of 2'-deoxyribofuranosides represented by Formulas V-VIII have unequivocal and generally high activity in inhibiting replication of both type 1 herpes simplex virus (HSV-1) and type 2 herpes simplex virus (HSV-2). […] Notable examples are the carbocyclic analogs of 2,6-diaminopurine 2'-deoxyribofuranoside (Example 5), 2'-deoxyguanosine (Example 6), 2'-deoxythioguanosine (Example 7), 2,6-diamino-8-azapurine 2'-deoxyribofuranoside (Example 9), and 2'-deoxy-8-azaguanosine (Example 10).
(§2) Carbocyclic analogs (Formulas (V-VIII) of 2'-deoxyribofuranoside derivatives of 2-amino-6-substituted-purines and of 2-amino-6-substituted-8-azapurines were tested for antiviral activity against viruses that replicate in mammalian cells growing in cell culture. The results of these tests against herpes simplex viruses are summarized in Table 1. The Virus Rating (VR) is a weighted measurement of antiviral activity determined by the method of Ehrlich et al., Annals of the New York Academy of Science, volume 130, pages 5-16, 1965. In tests carried out by this method, a VR of 0.5-0.9 indicates marginal to moderate antiviral activity, and a VR equal to or greater than 1 indicates definite antiviral activity. The higher the value of VR, the greater is the antiviral activity. The MIC50 (minimum inhibitory concentration, 50%) is the concentration of a test compound required for 50% inhibition of virus-induced cytopathogenic effects. The 2'-deoxyribofuranoside analogs of Examples 4-10 have unequivocal and selective antiviral activity against both type 1 and type 2 strains of herpes simplex virus.
(§3) ^a Antiviral evaluations were performed with HSV1 and HSV2 replicatin
(§4) either in secondary cultures of rabbit kidney cells or in Vero cells.
(§5) ^b 9D-Arabinofuranosyladenine was tesed as a positive control; the
(§6) range of values of VR and MIC50 came from several tests with either
(§7) rabbit kidney cells or Vero cells as the host cells.

In experiment [2] the test system is Herpes Simplex Virus Type 2, Strain MS. As to the kind of experiment: antiviral activity vs herpes simplex virus type 2 (virus-induced cytopathogenic effects in host cells). The class given is cell-based. The conditions noted are these: for antiviral activity against HSV-2 (in words): comparisons are with Ara-A (positive control); for VR (Virus Rating): VR ≥1 indicates definite antiviral activity, 0.5-0.9 marginal to moderate; for EC50: read-out: MIC50 (concentration for 50% inhibition of virus-induced cytopathogenic effects). The method, then:
as §1, §2, §3, §4, §5, §6, §7
Background: Damage to the host cells serves as the signal in cytopathic effect assays.

The mark [3] stands for this setting: HSV-1 strain 377, rabbit kidney cells or Vero cells.
Setting [4] is: HSV-2 strain MS, rabbit kidney cells or Vero cells.
[5] abbreviates: Human alphaherpesvirus 2, HSV-2 strain MS, rabbit kidney cells or Vero cells.

Converted amounts (≈) assume the structure as drawn. “Also recorded” adds a separate entry of the source. Where two headings read alike, the source gives them in different places.

The source of these data is patent US4543255A, “Carbocyclic analogs of purine 2'-deoxyribofuranosides” (Southern Research Institute, priority 1984, dated 1985).

With `Nc1nc(N)c2ncn([C@@H]3C[C@H](CO)[C@@H](O)C3)c2n1` (relative stereo) [Example 5, (1α, 2β, 4α)-4-(2,6-Diamino-9H-purin-9-yl)-2-hydroxycyclopentanemethanol], the “antiviral activity against HSV-1 (in words)” value in experiment [1] is “more active (VR=4-5) and more potent (lower MIC50)”. For the same compound, in experiment [1] (setting [3]), the “MIC50 (concentration for 50% inhibition of virus-induced cytopathogenic effects)” value was 0.3 µg/mL and the EC50 came out at 0.6 µg/mL (≈ 2.27 µM). For the same compound, in experiment [2], the “antiviral activity against HSV-2 (in words)” value is “equivalent or superior in activity and potency to Ara-A; also recorded: markedly more effective than was Ara-A”. Besides, the “VR (Virus Rating)” value in experiment [2] (setting [4]) turned out to be 2.9. Further, the EC50 in experiment [2] (setting [5]) was 2.4 µg/mL (≈ 9.08 µM).

For the compound `Nc1ncnc2c1ncn2[C@@H]1O[C@H](CO)[C@@H](O)[C@@H]1O` [Ara-A, 9D-Arabinofuranosyladenine, reference compound], the “VR (Virus Rating)” value in experiment [1] (setting [3]) is 2.5-3.1; in experiment [2] (setting [4]), 1.6-2.3. The EC50 in experiment [1] lay in the range of 6.4 to 9.8 µg/mL (≈ 23.9 to 36.7 µM); in experiment [2] (Human alphaherpesvirus 2, Vero), 6.4 to 30 µg/mL (≈ 23.9 to 112 µM).

For `Nc1nc(Cl)c2ncn([C@@H]3C[C@H](CO)[C@@H](O)C3)c2n1` (relative stereo) [Example 4, (1α, 2β, 4α)-4-(2-Amino-6-chloro-9H-purin-9-yl)-2-hydroxycyclopentanemethanol], the figures for the “VR (Virus Rating)” value in experiment [1] (setting [3]) and in experiment [2] (setting [4]) were 1.9 and 2.0, respectively. In addition, the EC50 in experiment [1] (setting [3]) is 8.1 µg/mL (≈ 28.5 µM); in experiment [2] (setting [5]), 37 µg/mL (≈ 130 µM).

In the case of `Nc1nc(Cl)c2nnn([C@@H]3C[C@H](CO)[C@@H](O)C3)c2n1` (relative stereo) [Example 8, (1α, 2β, 4α)-4-(5-Amino-7-chloro-3H-1,2,3-triazolo[4,5-d]pyrimidin-3-yl)-2-hydroxycyclopentanemethanol], the “MIC50 (concentration for 50% inhibition of virus-induced cytopathogenic effects)” value in experiment [1] (setting [3]) was found to be 1.6 µg/mL. Also, the EC50 in experiment [1] (setting [3]) was < 1 µg/mL; in experiment [2] (setting [5]), 23 µg/mL (≈ 80.8 µM). For the same compound, the “VR (Virus Rating)” value in experiment [2] (setting [4]) was 1.9.

Consider `Nc1nc2c(nnn2[C@@H]2C[C@H](CO)[C@@H](O)C2)c(=O)[nH]1` (relative stereo) [Example 10, 5-Amino-3,6-dihydro-3-[(1α, 2β, 4α)-3-hydroxy-4-(hydroxymethyl)cyclopentyl]-7H-1,2,3-triazolo[4,5-d]pyrimidin-7-one], for which the “antiviral activity against HSV-1 (in words)” value in experiment [1] was “more active (VR=4-5) and more potent (lower MIC50); also recorded: much more effective against HSV-1 than was Ara-A”. Besides, the “VR (Virus Rating)” value in experiment [1] (setting [3]) came out at 4.2; in experiment [2] (setting [4]), 2.1. In addition, the EC50 in experiment [1] (setting [3]) is 0.6 µg/mL (≈ 2.25 µM); in experiment [2] (setting [5]), 6.9 µg/mL (≈ 25.9 µM). The “antiviral activity against HSV-2 (in words)” value in experiment [2] was “equivalent or superior in activity and potency to Ara-A; also recorded: at least as effective as Ara-A against HSV-2”.

In the case of `Nc1nc2c(ncn2[C@@H]2C[C@H](CO)[C@@H](O)C2)c(=O)[nH]1` (relative stereo) [Example 6, 2-Amino-1,9-dihydro-9-[(1α, 3β, 4α)-3-hydroxy-4-(hydroxymethyl)cyclopentyl]-6H-purin-6-one], the “antiviral activity against HSV-1 (in words)” value in experiment [1] was “more active (VR=4-5) and more potent (lower MIC50)”. The “VR (Virus Rating)” value is recorded as ≥ 4.6 in experiment [1] (setting [3]) and 3.7 in experiment [2] (setting [4]). In addition, the results for the EC50 in experiment [1] (setting [3]) and in experiment [2] (setting [5]) were < 0.3 µg/mL and 0.8 µg/mL (≈ 3.02 µM), respectively. The “antiviral activity against HSV-2 (in words)” value in experiment [2] is “equivalent or superior in activity and potency to Ara-A; also recorded: markedly more effective than was Ara-A”.

Turning to `Nc1nc2c(ncn2[C@@H]2C[C@H](CO)[C@@H](O)C2)c(=S)[nH]1` (relative stereo) [Example 7], the “antiviral activity against HSV-1 (in words)” value in experiment [1] was “more active (VR=4-5) and more potent (lower MIC50)”. In addition, in experiment [1] (setting [3]), the “MIC50 (concentration for 50% inhibition of virus-induced cytopathogenic effects)” value was determined as 1.8 µg/mL and the EC50 was < 3.2 µg/mL. In addition, the “VR (Virus Rating)” value in experiment [2] (setting [4]) came to 1.7. Also, in experiment [2] (setting [5]), the EC50 amounted to 32 µg/mL (≈ 114 µM).

For `Nc1nc(N)c2nnn([C@@H]3C[C@H](CO)[C@@H](O)C3)c2n1` (relative stereo) [Example 9, (1α, 2β, 4α)-4-(5,7-Diamino-3H-1,2,3-triazolo[4,5-d]pyrimidin-3-yl)-2-hydroxycyclopentanemethanol], the “antiviral activity against HSV-1 (in words)” value in experiment [1] is “more active (VR=4-5) and more potent (lower MIC50); also recorded: much more effective against HSV-1 than was Ara-A”. Besides, in experiment [1] (setting [3]), the “MIC50 (concentration for 50% inhibition of virus-induced cytopathogenic effects)” value came to 2.0 µg/mL and the EC50 is < 3.2 µg/mL. Further, the “antiviral activity against HSV-2 (in words)” value in experiment [2] was “equivalent or superior in activity and potency to Ara-A; also recorded: at least as effective as Ara-A against HSV-2”. For the same compound, in experiment [2] (setting [4]), the “VR (Virus Rating)” value is recorded as 2.3. For the same compound, the EC50 in experiment [2] (setting [5]) came out at 10 µg/mL (≈ 37.7 µM).
